Assay results reported in PubChem BioAssay (NCI).
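Where inhibition never reached the appropriate level, the endpoint shown equals the highest concentration tested. Otherwise, values were interpolated linearly from a five-concentration, 48-hour dose response in 96-well plates. GI50 = concentration required for 50% inhibition of growth. TGI denotes the concentration required for complete inhibition of growth.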

Experiments:
Assay in all cases: NCI-60 cell line screen, 48 h
DLD-1 colon = system: DLD-1 colon
HOP-18 NSCLC = system: HOP-18 NSCLC
M19-MEL melanoma = system: M19-MEL melanoma
MDA-N = system: MDA-N
NCI/ADR-RES ovarian = system: NCI/ADR-RES ovarian
SNB-78 CNS = system: SNB-78 CNS
T-47D breast = system: T-47D breast
XF 498 CNS = system: XF 498 CNS
RXF-631 renal = system: RXF-631 renal

Work on `COc1ccc(CC2NCCc3cc(OC)c(OC)cc32)cc1Br` (centres undefined) yielded a TGI (DLD-1 colon) of over 100 µM, a TGI (HOP-18 NSCLC) of over 100 µM and a TGI (M19-MEL melanoma) of 41.5 µM. The TGI (MDA-N) was over 100 µM, the TGI (NCI/ADR-RES ovarian) was over 100 µM and the TGI (SNB-78 CNS) was over 100 µM. It also gave a TGI (T-47D breast) of 63.1 µM and a TGI (XF 498 CNS) of 47 µM.

In the case of `Br[C](Br)(Br)[Hg][c]1ccccc1`, the GI50 (MDA-N) is reported as 17.6 µM, the TGI (MDA-N) is reported as 38.7 µM and the GI50 (NCI/ADR-RES ovarian) is reported as 18.3 µM. The TGI (NCI/ADR-RES ovarian) was 42.2 µM, the GI50 (T-47D breast) was 9.56 µM and the TGI (T-47D breast) was 43.7 µM.

`O=C1Nc2ccc(F)cc2/C1=C/c1ccc[nH]1` was tested, and the GI50 (NCI/ADR-RES ovarian) was over 25 µM, the TGI (NCI/ADR-RES ovarian) was over 25 µM and the GI50 (T-47D breast) was 1.03 µM. The TGI (T-47D breast) was over 14.2 µM.

In the case of `S=C1OC2CCCC[C@H]2O1` (some centres undefined), the TGI (DLD-1 colon) is reported as over 100 µM, the TGI (HOP-18 NSCLC) is reported as over 100 µM and the TGI (M19-MEL melanoma) is reported as over 100 µM. The TGI (RXF-631 renal) was over 100 µM, the TGI (SNB-78 CNS) was over 100 µM and the TGI (XF 498 CNS) was over 100 µM.

In the case of `O=C1CCCC[C@H]1[C@H]1CCC[C@@H]([C@H]2CCCCC2=O)C1=O`, the TGI (DLD-1 colon) is reported as over 100 µM, the TGI (HOP-18 NSCLC) is reported as over 100 µM and the TGI (M19-MEL melanoma) is reported as over 100 µM. It also gave a TGI (RXF-631 renal) of over 100 µM and a TGI (XF 498 CNS) of over 100 µM.

`C#Cc1c(I)n(C2OC(CO[Si](C)(C)C(C)(C)C)C3OC(C)(C)OC32)c(=O)[nH]c1=O` (centres undefined) gave a GI50 (NCI/ADR-RES ovarian) of 23.5 µM, a TGI (NCI/ADR-RES ovarian) of 59.1 µM and a GI50 (T-47D breast) of 5.42 µM. For the same molecule, the TGI (T-47D breast) was 28 µM.

`C=C1C(=O)OC2/C=C(\COC(C)=O)CCC(OC(C)=O)C3=CC(OC3=O)C12` (centres undefined) was tested, and the TGI (DLD-1 colon) was 9.92 µM, the TGI (RXF-631 renal) was 48 µM and the TGI (SNB-78 CNS) was 9.55 µM. For the same molecule, the TGI (T-47D breast) was 53.4 µM and the TGI (XF 498 CNS) was 5.33 µM.

`O=C(NCO)NCOCn1c(=O)n(CO)c(=O)n(CO)c1=O` gave a TGI (DLD-1 colon) of 64.4 µM, a TGI (HOP-18 NSCLC) of over 100 µM and a TGI (M19-MEL melanoma) of over 66.3 µM. The TGI (RXF-631 renal) was over 100 µM, the TGI (SNB-78 CNS) was over 73.9 µM and the TGI (XF 498 CNS) was 55.5 µM.

With `O=c1c2ccccc2c(=O)c2c1[nH]c1c(-c3ccccc3)c(-c3ccccc3)c(=O)c12` the GI50 (NCI/ADR-RES ovarian) was 3.76 µM, the TGI (NCI/ADR-RES ovarian) was 21.7 µM and the GI50 (T-47D breast) was 1.8 µM. It also gave a TGI (T-47D breast) of 7.76 µM.

`COc1ccc2cc(C(C)C(=O)N3CCOC3=O)ccc2c1` (centres undefined) gave a TGI (MDA-N) of over 100 µM, a TGI (NCI/ADR-RES ovarian) of over 100 µM and a TGI (T-47D breast) of over 100 µM.

`O=c1cccc(C#CC#CC2=CCCCC2)o1` gave a GI50 (NCI/ADR-RES ovarian) of 6.99 µM, a TGI (NCI/ADR-RES ovarian) of 20.4 µM and a GI50 (T-47D breast) of 2.73 µM. The TGI (T-47D breast) was 14.8 µM.

`Cc1ccc(S(=O)(=O)C(C#N)c2nc3ccccc3nc2-n2ccnc2)cc1` (centres undefined) showed a TGI (DLD-1 colon) of over 100 µM, a TGI (HOP-18 NSCLC) of over 100 µM and a TGI (M19-MEL melanoma) of over 100 µM. For the same molecule, the TGI (SNB-78 CNS) was over 100 µM and the TGI (XF 498 CNS) was over 100 µM.

For `COc1ccc(OC)c2c(C(=O)O)c(Cc3ccccc3)ccc12`, the TGI (DLD-1 colon) was over 100 µM, the TGI (HOP-18 NSCLC) was over 100 µM and the TGI (M19-MEL melanoma) was over 100 µM. For the same molecule, the TGI (XF 498 CNS) was over 100 µM.

Molecule `O=C1CC2CCCC23CC2(CCN13)OCCO2` (centres undefined) has a TGI (DLD-1 colon) of over 100 µM, a TGI (HOP-18 NSCLC) of over 100 µM and a TGI (M19-MEL melanoma) of over 100 µM. The TGI (RXF-631 renal) was over 100 µM, the TGI (SNB-78 CNS) was over 100 µM and the TGI (XF 498 CNS) was over 100 µM.

Molecule `CN(C)C(=O)[C@H](O)[C@H](Cc1ccccc1)NC(=O)c1cc2cc(Cl)ccc2[nH]1` has a GI50 (NCI/ADR-RES ovarian) of 22.7 µM, a TGI (NCI/ADR-RES ovarian) of over 100 µM and a GI50 (T-47D breast) of 25.1 µM. The TGI (T-47D breast) was over 96.7 µM.
